Test results taken from patent publication US20140234455A1, “ANTIMICROBIAL COMPOSITION, METHOD FOR ITS PREPARATION AND ITS USE” (PATOLAB OY, priority 2011, published 2014).

Key:
Assay type in all cases: cell-based
Settings in all cases: tested after one week washing, 24 hours incubation, Example 2 stock diluted 1:1 with tap water
[1] = test system: E. coli; test: Challenge test on a steel plate (EN 13697)
Protocol: The test was performed after one week washing the steel plate with the composition.

[2] = test system: Staphylococcus aureus (MRSA); test: ISO 20645/20743 challenge test in accordance with EN 13697 on a steel plate
[3] = test system: C. albicans; test: Challenge test on a steel plate (EN 13697)
[4] = test system: Enteroc.; test: Challenge test on a steel plate (EN 13697)
[5] = test system: A. niger; test: Challenge test on a steel plate (EN 13697)
[6] = test system: PS. aerug.; test: Challenge test on a steel plate (EN 13697)

CCO [70% ethanol, ethanol]
log 1: Reduction in growth of microorganisms, E. coli [1] | Reduction in growth of microorganisms, MRSA (Staphylococcus aureus) [2] | Reduction in growth of microorganisms, C. albicans [3] | Reduction in growth of microorganisms, Enteroc. [4] | Reduction in growth of microorganisms, A. niger [5] | Reduction in growth of microorganisms, PS. aerug. [6]
